Measured values taken from US20230225990A1, “DIMETHYL SULFONE FOR TREATMENT OF CHRONICALLY HEAT STRESSED POULTRY” (Evonik Operations GmbH, priority 2020, published 2023).
Marks after values point to notes of the source that are not given here.

Columns and labels:
[1] = test system: male broilers subjected to chronic cyclic heat stress; assay: Parameters in blood of birds sampled at d-23, d-25 and d-39; assay type: in vivo, broiler chickens (Ross 308); conditions: for GSSG/GSH / Glutathione (GSH) / Oxidized glutathione (GSSG): erythrocytes; for Glutathione peroxidase / Heat shock protein 70 / Malondialdehyde / Super oxide dismutase: plasma; for Nitric oxide / T3 (triiodothyronine) / T3/T4 / T4 (thyroxine): serum
Method: (§1) Sampling of one bird per pen (with weight close to average weight of the pen) on d-23, d-25 and on d-39 (on d-25 and d-39, sampling starts after >3 h of heat stress that day; 108 birds in total) • malondialdehyde, HSP70 (Chicken Heat Shock Protein 70, Hsp-70 ELISA Kit) Cusabio Code CSB-E11196Ch), HSP90 (Chicken Heat Shock Protein 90, HSP-90 ELISA Kit; Cusabio Code CSB-E12873C), GPx, SOD in plasma; GSH/GSSG in erythrocytes; and T3, T4 and nitric oxide in serum • Breast muscle and liver: malondialdehyde, AOX (GPx, SOD), GSH/GSSG
(§2) For physiological measurements, time of sampling (representing the number of minutes between the beginning of heat stress and the precise moment of sampling of the bird that day), if appropriate, was included in the model as a covariable if significant as well. Orthogonal contrasts were applied to test for linear and quadratic effects upon incremental levels of DMS supplementation in the diet. Means are given as estimated marginal means (least square means). Means were separated using the Tukey post-hoc test. Differences were considered significant when p<0.05 and as a trend for significance when p<0.1.
Heat shock protein 70 and heat shock protein 90 were determined in plasma employing the competitive inhibition enzyme immunoassay technique (HSP70, Chicken Heat Shock Protein 70, Hsp-70 ELISA Kit; Cusabio Code CSB-E11196Ch) and the quantitative sandwich enzyme immunoassay technique (HSP90, Chicken Heat Shock Protein 90, HSP-90 ELISA Kit; Cusabio Code CSB-E12873C), respectively. Regarding HSP-90 very low absorbances were found and in most cases fell below the lowest standard dilution. Values were then typically less than 0.39 ng/mL, the minimum detectable dose as mentioned in the user manual. For that reason, no data for HSP-90 could be reported here. Opposite to that, HSP-70 worked properly and values were all above sensitivity of 0.125 ng/mL. No treatments effects on HSP-70 could be perceived on either sampling day, apart from a trend for linear reduction on d-23. […] It must be noted that large variation across samples was found on d-39. Thyroxine (T4) could not be detected on d-23, while higher values were found on d-25 and d-39. A trend for linear increase on d-39 by higher DMS dose was observed. […] It means that conversion efficiency was not altered by diet. Irrespective of treatment is the sharp reduction in circulating T3 levels as birds age and thus subjected for long period to heat stress. As indicated above, this can be regarded as an adaptation to reduce body metabolism and hitherto metabolic heat production, and apparently birds fed DMS seems to be less affected. Nitric oxide was not different across treatments at any sampling day. Further, interesting changes in malondialdehyde, a marker of lipid peroxidation, were found. […] The higher GSH in DMS-fed chickens thus promotes antioxidant function and redox homeostasis. However, no relation could be established between plasma malondialdehyde and erythrocyte glutathione (FIG. 17).

[2] = test system: male broilers subjected to chronic cyclic heat stress; assay: Body weight and rectal temperature of birds sampled at d-23, d-25 and d-39; assay type: in vivo, broiler chickens (Ross 308)
Method: as §1, §2
At d-23, d-25 and d39, one bird per pen (with weight close to average weight of the pen) was sampled. On d-25 and d-39, sampling started after >3 h of heat stress that day. Thus, in total 108 birds were sampled, and various endpoints were determined in several tissues. To recall, finisher period started on d-21, while the heat stress protocol was implemented from d-24 onwards. It means that d-23 was the last day prior to heat stress and d-25 the second day whereby birds were subjected to high temperatures. Body weights on d-23 and d-25 (Table 7) were naturally higher than those reported on d-21 (Table 3), but not affected by treatment. Body weights at d-39 for sampled birds are very close to body weights for d-39 shown in Table 3, which confirms that birds with weight close to average weight of the pen were selected. Again, this was not affected by supplementation with DMS. Rectal temperature of sampled birds on d-23 represents values for thermo-neutral conditions, and thus ranged between 41.1 and 41.3° C. without treatment differences (FIG. 15). However, on d-25 rectal temperatures were largely elevated and obviously affected by diet (P<0.05). […] Nonetheless, observations are in line with findings on d-38 (Table 4).

[3] = 0.2% DMS in diet (T3), sampled birds d-25

CS(C)(=O)=O [DMS, dimethyl sulfone]
GSSG/GSH ([1]; 0.1% DMS in diet (T2), d-23): 0.015 | Glutathione (GSH) ([1]; 0.1% DMS in diet (T2), d-23): 1.07 µmol/mL | Oxidized glutathione (GSSG) ([1]; 0.1% DMS in diet (T2), d-23): 0.017 µmol/mL | GSSG/GSH ([1]; 0.1% DMS in diet (T2), d-25): 0.017^a | Glutathione (GSH) ([1]; 0.1% DMS in diet (T2), d-25): 0.59 µmol/mL | Oxidized glutathione (GSSG) ([1]; 0.1% DMS in diet (T2), d-25): 0.010 µmol/mL | GSSG/GSH ([1]; 0.1% DMS in diet (T2), d-39): 0.017 | Glutathione (GSH) ([1]; 0.1% DMS in diet (T2), d-39): 0.64^ab μmol/mL | Oxidized glutathione (GSSG) ([1]; 0.1% DMS in diet (T2), d-39): 0.011 µmol/mL | Glutathione peroxidase ([1]; 0.1% DMS in diet (T2), d-23): 0.82 U/mL | Heat shock protein 70 ([1]; 0.1% DMS in diet (T2), d-23): 1.69 ng/mL | Malondialdehyde ([1]; 0.1% DMS in diet (T2), d-23): 14.4 nmol/mL | Super oxide dismutase ([1]; 0.1% DMS in diet (T2), d-23): 84.1 % inhibition | Glutathione peroxidase ([1]; 0.1% DMS in diet (T2), d-25): 0.84 U/mL | Heat shock protein 70 ([1]; 0.1% DMS in diet (T2), d-25): 1.07 ng/mL | Malondialdehyde ([1]; 0.1% DMS in diet (T2), d-25): 14.3 nmol/mL | Super oxide dismutase ([1]; 0.1% DMS in diet (T2), d-25): 81.3 % inhibition | Glutathione peroxidase ([1]; 0.1% DMS in diet (T2), d-39): 0.97 U/mL | Heat shock protein 70 ([1]; 0.1% DMS in diet (T2), d-39): 2.77 ng/mL | Malondialdehyde ([1]; 0.1% DMS in diet (T2), d-39): 15.7 nmol/mL | Super oxide dismutase ([1]; 0.1% DMS in diet (T2), d-39): 79.5 % inhibition | Nitric oxide ([1]; 0.1% DMS in diet (T2), d-23): 6.02 µmol/L | T3 (triiodothyronine) ([1]; 0.1% DMS in diet (T2), d-23): 2.43^a μg/L | Nitric oxide ([1]; 0.1% DMS in diet (T2), d-25): 4.31 µmol/L | T3 (triiodothyronine) ([1]; 0.1% DMS in diet (T2), d-25): 1.74 µg/L | T3/T4 ([1]; 0.1% DMS in diet (T2), d-25): 0.342 | T4 (thyroxine) ([1]; 0.1% DMS in diet (T2), d-25): 0.53 µg/dL | Nitric oxide ([1]; 0.1% DMS in diet (T2), d-39): 3.84 µmol/L | T3 (triiodothyronine) ([1]; 0.1% DMS in diet (T2), d-39): 1.10 µg/L | T3/T4 ([1]; 0.1% DMS in diet (T2), d-39): 0.193 | T4 (thyroxine) ([1]; 0.1% DMS in diet (T2), d-39): 0.60 µg/dL | GSSG/GSH ([1]; 0.2% DMS in diet (T3), d-23): 0.018 | Glutathione (GSH) ([1]; 0.2% DMS in diet (T3), d-23): 1.25 µmol/mL | Oxidized glutathione (GSSG) ([1]; 0.2% DMS in diet (T3), d-23): 0.023 µmol/mL | GSSG/GSH ([1]; 0.2% DMS in diet (T3), d-25): 0.013^b | Glutathione (GSH) ([1]; 0.2% DMS in diet (T3), d-25): 0.70 µmol/mL | Oxidized glutathione (GSSG) ([1]; 0.2% DMS in diet (T3), d-25): 0.009 µmol/mL | GSSG/GSH ([1]; 0.2% DMS in diet (T3), d-39): 0.015 | Glutathione (GSH) ([1]; 0.2% DMS in diet (T3), d-39): 0.67^a μmol/mL | Oxidized glutathione (GSSG) ([1]; 0.2% DMS in diet (T3), d-39): 0.010 µmol/mL | Glutathione peroxidase ([1]; 0.2% DMS in diet (T3), d-23): 0.92 U/mL | Heat shock protein 70 ([1]; 0.2% DMS in diet (T3), d-23): 1.00 ng/mL | Malondialdehyde ([1]; 0.2% DMS in diet (T3), d-23): 14.2 nmol/mL | Super oxide dismutase ([1]; 0.2% DMS in diet (T3), d-23): 80.4 % inhibition | Glutathione peroxidase ([1]; 0.2% DMS in diet (T3), d-25): 0.86 U/mL | Heat shock protein 70 ([1]; 0.2% DMS in diet (T3), d-25): 1.08 ng/mL | Malondialdehyde ([1]; 0.2% DMS in diet (T3), d-25): 13.2 nmol/mL | Super oxide dismutase ([1]; 0.2% DMS in diet (T3), d-25): 84.1 % inhibition | Glutathione peroxidase ([1]; 0.2% DMS in diet (T3), d-39): 1.09 U/mL | Heat shock protein 70 ([1]; 0.2% DMS in diet (T3), d-39): 4.23 ng/mL | Malondialdehyde ([1]; 0.2% DMS in diet (T3), d-39): 14.9 nmol/mL | Super oxide dismutase ([1]; 0.2% DMS in diet (T3), d-39): 87.1 % inhibition | Nitric oxide ([1]; 0.2% DMS in diet (T3), d-23): 6.06 µmol/L | T3 (triiodothyronine) ([1]; 0.2% DMS in diet (T3), d-23): 2.06^b μg/L | Nitric oxide ([1]; 0.2% DMS in diet (T3), d-25): 4.48 µmol/L | T3 (triiodothyronine) ([1]; 0.2% DMS in diet (T3), d-25): 1.72 µg/L | T3/T4 ([1]; 0.2% DMS in diet (T3), d-25): 0.351 | T4 (thyroxine) ([1]; 0.2% DMS in diet (T3), d-25): 0.50 µg/dL | Nitric oxide ([1]; 0.2% DMS in diet (T3), d-39): 3.14 µmol/L | T3 (triiodothyronine) ([1]; 0.2% DMS in diet (T3), d-39): 1.12 µg/L | T3/T4 ([1]; 0.2% DMS in diet (T3), d-39): 0.180 | T4 (thyroxine) ([1]; 0.2% DMS in diet (T3), d-39): 0.63 µg/dL | Body weight ([2]; 0.1% DMS in diet (T2), sampled birds d-23): 1361 g | Rectal temperature ([2]; 0.1% DMS in diet (T2), sampled birds d-23 (prior to heat stress)): 41.3 °C | Body weight ([2]; 0.1% DMS in diet (T2), sampled birds d-25): 1544 g | Rectal temperature ([2]; 0.1% DMS in diet (T2), sampled birds d-25, during heat stress): 42.5^b ° C. | Body weight ([2]; 0.1% DMS in diet (T2), sampled birds d-39): 3097 g | Rectal temperature ([2]; 0.1% DMS in diet (T2), sampled birds d-39, during heat stress): 42.6 °C | Body weight ([2]; 0.2% DMS in diet (T3), sampled birds d-23): 1352 g | Rectal temperature ([2]; 0.2% DMS in diet (T3), sampled birds d-23 (prior to heat stress)): 41.1 °C | Body weight [2, 3]: 1536 g | Rectal temperature lower than control [2, 3]: 0.5 °C | Rectal temperature ([2]; 0.2% DMS in diet (T3), sampled birds d-25, during heat stress): 42.3^b ° C. | Body weight ([2]; 0.2% DMS in diet (T3), sampled birds d-39): 3068 g | Rectal temperature ([2]; 0.2% DMS in diet (T3), sampled birds d-39, during heat stress): 42.3 °C
